Assay results: PubChem BioAssay AID1982 (Sanford-Burnham Center for Chemical Genomics, 2009)
Calls of active or inactive are those of the source. No rule for the calls is given here.

Key:
Assay in all cases: kinase panel binding selectivity, selectivity assay, biochemical, KINOMEscan (AID 1982)
[1] = biological target: Dual specificity mitogen-activated protein kinase kinase 1 (Homo sapiens) (UniProt Q02750); conditions: KINOMEscan 353-kinase binding panel, qPCR; MEK1; at 10 µM; active compounds read low
ERK4 = conditions: KINOMEscan 353-kinase binding panel, qPCR, at 10 µM, active compounds read low
MEK4 = conditions: KINOMEscan 353-kinase binding panel, qPCR, at 10 µM, active compounds read low
[2] = biological target: Maternal embryonic leucine zipper kinase (Homo sapiens) (UniProt Q14680); conditions: KINOMEscan 353-kinase binding panel, qPCR; MELK; at 10 µM; active compounds read low
PAK3 = conditions: KINOMEscan 353-kinase binding panel, qPCR, at 10 µM, active compounds read low
[3] = biological target: Protein-tyrosine kinase 2-beta (Homo sapiens) (UniProt Q14289); conditions: KINOMEscan 353-kinase binding panel, qPCR; PTK2B; at 10 µM; active compounds read low
RIOK1 = conditions: KINOMEscan 353-kinase binding panel, qPCR, at 10 µM, active compounds read low
RIOK2 = conditions: KINOMEscan 353-kinase binding panel, qPCR, at 10 µM, active compounds read low
TAOK3 = conditions: KINOMEscan 353-kinase binding panel, qPCR, at 10 µM, active compounds read low
TNK1 = conditions: KINOMEscan 353-kinase binding panel, qPCR, at 10 µM, active compounds read low
[4] = biological target: Vascular endothelial growth factor receptor 1 (Homo sapiens) (UniProt P17948); conditions: KINOMEscan 353-kinase binding panel, qPCR; FLT1; at 10 µM; active compounds read low

Measured: percent of control binding

Sequence of Protein-tyrosine kinase 2-beta (Homo sapiens) (Q14289 whole entry, looked up): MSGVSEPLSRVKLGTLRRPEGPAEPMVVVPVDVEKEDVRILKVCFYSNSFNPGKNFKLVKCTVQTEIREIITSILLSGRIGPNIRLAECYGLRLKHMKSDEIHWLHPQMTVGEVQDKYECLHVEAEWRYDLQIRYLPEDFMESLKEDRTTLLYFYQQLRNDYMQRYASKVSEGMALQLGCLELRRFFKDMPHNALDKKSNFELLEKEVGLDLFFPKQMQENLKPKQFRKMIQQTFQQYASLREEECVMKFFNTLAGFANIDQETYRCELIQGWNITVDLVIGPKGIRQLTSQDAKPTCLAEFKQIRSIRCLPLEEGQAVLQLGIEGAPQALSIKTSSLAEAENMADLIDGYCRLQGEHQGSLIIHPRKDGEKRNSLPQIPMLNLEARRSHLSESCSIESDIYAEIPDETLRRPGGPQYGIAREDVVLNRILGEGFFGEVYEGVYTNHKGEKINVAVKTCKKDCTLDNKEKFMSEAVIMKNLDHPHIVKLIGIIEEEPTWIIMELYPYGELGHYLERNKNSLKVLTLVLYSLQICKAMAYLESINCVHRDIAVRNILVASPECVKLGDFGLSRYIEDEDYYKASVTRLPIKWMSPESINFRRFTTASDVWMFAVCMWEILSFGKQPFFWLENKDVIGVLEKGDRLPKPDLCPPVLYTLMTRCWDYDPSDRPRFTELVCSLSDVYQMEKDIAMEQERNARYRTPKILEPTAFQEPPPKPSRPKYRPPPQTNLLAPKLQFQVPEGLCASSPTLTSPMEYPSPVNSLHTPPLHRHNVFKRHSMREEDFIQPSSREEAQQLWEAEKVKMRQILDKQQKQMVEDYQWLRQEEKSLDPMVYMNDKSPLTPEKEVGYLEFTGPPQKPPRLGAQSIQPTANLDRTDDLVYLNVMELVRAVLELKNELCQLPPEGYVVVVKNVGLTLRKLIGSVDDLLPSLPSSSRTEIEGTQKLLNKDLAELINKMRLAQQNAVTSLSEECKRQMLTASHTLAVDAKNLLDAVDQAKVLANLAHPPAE
Sequence of Maternal embryonic leucine zipper kinase (Homo sapiens) (Q14680 whole entry, looked up): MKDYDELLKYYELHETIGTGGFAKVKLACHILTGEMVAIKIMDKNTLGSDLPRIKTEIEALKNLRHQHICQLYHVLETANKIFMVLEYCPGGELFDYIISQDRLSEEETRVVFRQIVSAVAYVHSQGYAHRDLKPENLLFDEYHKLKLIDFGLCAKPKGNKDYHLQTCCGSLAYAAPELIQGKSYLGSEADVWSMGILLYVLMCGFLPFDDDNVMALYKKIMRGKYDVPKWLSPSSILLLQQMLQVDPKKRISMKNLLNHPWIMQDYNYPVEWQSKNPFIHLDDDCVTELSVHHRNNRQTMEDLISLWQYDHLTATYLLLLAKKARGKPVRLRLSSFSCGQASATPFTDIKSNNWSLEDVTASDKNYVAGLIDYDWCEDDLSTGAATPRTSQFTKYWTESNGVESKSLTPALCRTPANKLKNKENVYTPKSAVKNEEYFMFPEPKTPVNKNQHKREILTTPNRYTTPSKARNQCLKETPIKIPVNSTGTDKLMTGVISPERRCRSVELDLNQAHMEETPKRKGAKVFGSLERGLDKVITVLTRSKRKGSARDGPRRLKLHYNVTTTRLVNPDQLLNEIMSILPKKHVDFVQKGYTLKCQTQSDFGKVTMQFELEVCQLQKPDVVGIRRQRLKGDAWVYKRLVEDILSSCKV
Sequence of Dual specificity mitogen-activated protein kinase kinase 1 (Homo sapiens) (Q02750 whole entry, looked up): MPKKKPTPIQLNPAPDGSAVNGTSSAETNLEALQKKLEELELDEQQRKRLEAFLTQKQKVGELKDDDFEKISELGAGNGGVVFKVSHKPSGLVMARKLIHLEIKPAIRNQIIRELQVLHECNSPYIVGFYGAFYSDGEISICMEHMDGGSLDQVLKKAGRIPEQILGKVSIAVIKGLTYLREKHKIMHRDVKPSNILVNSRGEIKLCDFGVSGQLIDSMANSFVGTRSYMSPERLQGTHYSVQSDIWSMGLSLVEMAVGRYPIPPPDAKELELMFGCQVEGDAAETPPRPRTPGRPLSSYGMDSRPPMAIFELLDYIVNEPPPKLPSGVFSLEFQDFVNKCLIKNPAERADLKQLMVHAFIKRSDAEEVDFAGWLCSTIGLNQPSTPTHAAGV
Sequence of Vascular endothelial growth factor receptor 1 (Homo sapiens) (P17948 whole entry, looked up): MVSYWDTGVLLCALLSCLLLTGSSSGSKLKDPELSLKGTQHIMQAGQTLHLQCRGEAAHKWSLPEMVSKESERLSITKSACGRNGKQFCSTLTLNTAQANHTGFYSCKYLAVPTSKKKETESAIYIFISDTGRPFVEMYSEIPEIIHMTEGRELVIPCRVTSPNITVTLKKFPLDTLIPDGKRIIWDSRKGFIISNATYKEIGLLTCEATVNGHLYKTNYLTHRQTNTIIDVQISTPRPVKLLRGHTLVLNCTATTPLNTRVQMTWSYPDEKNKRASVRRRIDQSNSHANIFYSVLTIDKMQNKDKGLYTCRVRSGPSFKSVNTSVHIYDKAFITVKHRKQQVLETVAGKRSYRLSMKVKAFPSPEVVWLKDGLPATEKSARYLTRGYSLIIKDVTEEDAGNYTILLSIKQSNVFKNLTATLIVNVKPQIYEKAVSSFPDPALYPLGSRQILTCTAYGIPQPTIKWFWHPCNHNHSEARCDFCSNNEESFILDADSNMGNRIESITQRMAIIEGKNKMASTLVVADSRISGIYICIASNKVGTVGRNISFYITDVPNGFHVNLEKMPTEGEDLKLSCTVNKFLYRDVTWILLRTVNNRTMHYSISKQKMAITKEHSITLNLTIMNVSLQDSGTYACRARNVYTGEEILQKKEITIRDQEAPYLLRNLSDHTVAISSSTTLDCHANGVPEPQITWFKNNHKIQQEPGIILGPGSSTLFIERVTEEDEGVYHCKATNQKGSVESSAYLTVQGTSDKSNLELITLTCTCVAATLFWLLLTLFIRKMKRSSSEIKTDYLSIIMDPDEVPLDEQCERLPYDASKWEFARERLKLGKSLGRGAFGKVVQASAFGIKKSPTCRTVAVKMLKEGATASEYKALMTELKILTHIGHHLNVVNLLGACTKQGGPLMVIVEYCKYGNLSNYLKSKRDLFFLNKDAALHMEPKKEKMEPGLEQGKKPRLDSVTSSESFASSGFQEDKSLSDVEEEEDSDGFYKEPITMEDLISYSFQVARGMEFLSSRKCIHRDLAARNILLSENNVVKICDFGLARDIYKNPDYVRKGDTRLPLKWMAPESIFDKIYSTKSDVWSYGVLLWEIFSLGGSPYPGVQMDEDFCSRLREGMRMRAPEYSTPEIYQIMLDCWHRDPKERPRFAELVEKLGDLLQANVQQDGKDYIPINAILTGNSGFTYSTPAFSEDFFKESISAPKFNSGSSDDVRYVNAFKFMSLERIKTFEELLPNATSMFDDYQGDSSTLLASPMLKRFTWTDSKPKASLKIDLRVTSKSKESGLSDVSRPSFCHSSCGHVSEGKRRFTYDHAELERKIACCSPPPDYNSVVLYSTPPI

Cc1cc2nc(NCCCO)n(CC(=O)c3cc(C(C)(C)C)c(O)c(C(C)(C)C)c3)c2cc1C
inactive: [1] 75% | ERK4 100% | MEK4 79% | [2] 93% | PAK3 79% | [3] 100% | RIOK1 100% | RIOK2 96% | TAOK3 99% | TNK1 80% | [4] 100%
